Experimental data published in US8546451B2 (priority 2005, dated 2013).

Tests used:
[1] = test system: LH, serum PSA, free testosterone and total testosterone; experiment: Compound IV study on human males; type: in vivo
rat ER-α = rat ER-α (Rattus norvegicus (Rat), UniProt P06211); experiment: cell-based
Method: Transactivation assays in agonist and antagonist modes were performed to identify whether the compound is an agonist, antagonist or a partial.
Sequencing was performed to determine the absence of any mutations. HEK-293 cells were plated at 100,000 cells per well of a 24 well plate in Dulbecco's Minimal Essential Media (DMEM) +5% charcoal-stripped fetal bovine serum (csFBS). The cells were transfected using Lipofectamine (Invitrogen, Carlsbad, Calif.) with 0.25 μg ERE-LUC, 0.02 μg CMV-LUC (renilla luciferase) and 12.5 ng of rat ER-α or 25 ng rat ER-β. […] Luciferase assays were performed 48 hrs after transfection.

CYP3A4/5 = experiment: CYP450 inhibition in vitro, CYP3A4/5; type: in vitro ADME; conditions: at concentrations <30 μM
PPAR-α = PPAR-α (Homo sapiens (Human), UniProt Q07869); experiment: Cross-reactivity transcriptional activation assay, PPAR-α; type: cell-based; conditions: agonist and antagonist modes
PPAR-α, sequence (Q07869 whole entry, canonical isoform): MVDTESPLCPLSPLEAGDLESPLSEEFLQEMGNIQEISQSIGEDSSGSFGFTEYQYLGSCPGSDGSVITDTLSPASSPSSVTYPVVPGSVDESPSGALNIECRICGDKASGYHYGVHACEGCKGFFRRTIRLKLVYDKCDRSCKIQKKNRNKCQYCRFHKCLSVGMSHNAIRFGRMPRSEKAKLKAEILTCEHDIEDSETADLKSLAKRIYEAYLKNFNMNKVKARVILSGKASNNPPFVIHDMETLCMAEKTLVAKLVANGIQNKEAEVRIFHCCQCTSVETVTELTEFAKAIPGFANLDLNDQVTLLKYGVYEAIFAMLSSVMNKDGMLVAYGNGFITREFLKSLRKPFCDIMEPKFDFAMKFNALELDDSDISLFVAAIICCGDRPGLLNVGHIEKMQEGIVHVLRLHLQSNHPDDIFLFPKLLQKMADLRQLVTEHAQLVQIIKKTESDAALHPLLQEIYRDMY
Text: Compound IV was screened for cross-reactivity against rat isoforms of glucocorticoid receptor (GR), mineralocorticoids receptor (MR), progesterone receptor (PR), androgen receptor (AR) and human isoforms of farnesoid X receptor (FXR), liver X receptor (LXR), peroxisome proliferator-activated receptors (PPAR-α and PPAR-γ), and retinoid X receptor (RXR-α) in both agonist and antagonist modes in transcriptional activation assays.

rat ER-α, sequence (P06211 whole entry): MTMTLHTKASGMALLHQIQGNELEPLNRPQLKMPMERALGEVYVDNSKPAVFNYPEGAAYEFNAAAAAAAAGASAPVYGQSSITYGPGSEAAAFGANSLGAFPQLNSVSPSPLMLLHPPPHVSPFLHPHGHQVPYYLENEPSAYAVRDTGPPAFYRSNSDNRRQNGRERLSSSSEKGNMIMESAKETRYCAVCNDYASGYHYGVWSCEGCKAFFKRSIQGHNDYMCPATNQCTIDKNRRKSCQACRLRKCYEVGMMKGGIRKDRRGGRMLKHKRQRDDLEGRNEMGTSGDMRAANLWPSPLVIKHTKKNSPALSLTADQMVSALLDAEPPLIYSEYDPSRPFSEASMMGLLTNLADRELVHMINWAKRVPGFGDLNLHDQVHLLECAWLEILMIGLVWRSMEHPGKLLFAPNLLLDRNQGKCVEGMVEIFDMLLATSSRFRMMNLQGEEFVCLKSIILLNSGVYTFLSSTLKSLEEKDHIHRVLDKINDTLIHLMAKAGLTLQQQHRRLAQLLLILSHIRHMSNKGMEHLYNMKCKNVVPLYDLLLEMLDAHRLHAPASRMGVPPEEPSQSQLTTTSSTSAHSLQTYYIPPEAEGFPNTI

Which results are given for O=C(c1ccc(O)c(F)c1)N(c1ccc(O)cc1)c1ccc(F)cc1 [Compound IV, 3-fluoro-N-(4-fluorophenyl)-4-hydroxy-N-(4-hydroxyphenyl)benzamide]?
Free Testosterone, mean change from baseline ([1]; 100 mg): −17.0%; LH, mean change from baseline ([1]; 100 mg): 20.7%; Serum PSA, mean change from baseline ([1]; 100 mg): −9.2%; Total Testosterone, mean change from baseline ([1]; 100 mg): 3.9%; decrease of PSA levels ([1]; 100 mg): 9.2%; decrease of free testosterone levels ([1]; 100 mg): 17.0%; Free Testosterone, mean change from baseline ([1]; 300 mg): −18.5%; LH, mean change from baseline ([1]; 300 mg): 46.9%; Serum PSA, mean change from baseline ([1]; 300 mg): −24.4%; Total Testosterone, mean change from baseline ([1]; 300 mg): 7.3%; decrease of PSA levels ([1]; 300 mg): 24.4%; decrease of free testosterone levels ([1]; 300 mg): 18.5%; Free Testosterone, mean change from baseline ([1]; 600 mg): −72.7%; LH, mean change from baseline ([1]; 600 mg): 27.6%; Serum PSA, mean change from baseline ([1]; 600 mg): −27.5%; Total Testosterone, mean change from baseline ([1]; 600 mg): −51.9%; decrease of PSA levels ([1]; 600 mg): 27.5%; decrease of free testosterone levels ([1]; 600 mg): 72.7%; decrease of total testosterone level ([1]; 600 mg): 51.9%; Free Testosterone, mean change from baseline ([1]; 1000 mg): −53.2%; LH, mean change from baseline ([1]; 1000 mg): 29.2%; Serum PSA, mean change from baseline ([1]; 1000 mg): −29.9%; Total Testosterone, mean change from baseline ([1]; 1000 mg): −47.9%; decrease of PSA levels ([1]; 1000 mg): 29.9%; decrease of free testosterone levels ([1]; 1000 mg): 53.2%; decrease of total testosterone level ([1]; 1000 mg): 47.9%; changes of PSA levels ([1]; 10 and 30 mg doses): No changes; ERα activity in transient transfection assays (rat ER-α): agonist; selectivity for ERα over ERβ in transcriptional activation (rat ER-α): 49.0 fold; antagonist effects on estradiol-stimulated transcriptional activation (rat ER-α; estradiol 1 nM, concentrations up to 10 μM): no antagonist effects were observed; relative selectivity in transactivation potency for ERα over ERβ (rat ER-α; normalized to estradiol values): 9.7 fold; inhibition of CYP3A4/5 (CYP3A4/5): does not inhibit; agonist or antagonist activity (PPAR-α): did not display any agonist or antagonist activity
